Experiments:
[1] = test system: A. fumigatus-induced asthma model; test: Cytokine levels in whole lung homogenate in A. fumigatus-induced asthma model; assay type: in vivo, mice; conditions: day 30 after conidia challenge
Method: (§1) C57BL/6 mice were sensitized via intraperitoneal (i.p.) and subcutaneous (s.c.) route with a commercially available preparation of soluble A. fumigatus antigens dissolved in 0.2 ml of IFA. After three intranasal instillations of Aspergillus antigen, each spaced one-week apart, each mouse received 1×10^7 swollen conidia suspended in 30 μl of PBS tween 80 (0.1%; vol/vol) via intratracheal (i.t.) administration. All mice were euthanized with an overdose of Nembutal and lung homogenates were collected immediately following euthanization. Mouse PTX3 ELISA was completed on lung homogenate supernatant.
(§2) A. fumigatus-Induced Asthma Model was Established as Described in Example 1.
(§3) Mice were treated every other day from day 0 to 15 or from day 15 to 30 with PBS or human PTX3 (R&D System, Minneapolis, Minn., USA; 10 μg/injection). At days 15 and 30 after conidia challenge, bronchial hyper-responsiveness was assessed in a Buxco™ plethysmograph (Buxco, Troy, N.Y.) after intravenous methacholine injection (420 μg/Kg). Other parameters were determined after the assessment of airway hyper-responsiveness.
To investigate whether the treatment with exogenous PTX3 modified the cytokine profile in asthma, the levels of different cytokines in whole lungs homogenate from PBS and PTX3-treated mice at day 30 after conidia challenge were measured.

[2] = test system: A. fumigatus-induced asthma model; test: Bronchial hyper-responsiveness (Buxco plethysmograph, methacholine) in A. fumigatus-induced asthma model; assay type: in vivo, mice; conditions: vs PBS
Method: as §1, §2, §3

Substance: PTX3: human PTX3 (pentraxin 3) polypeptide from R&D System, administered to mice at 10 μg/injection
- increase in IL-4 ([1]; vs PBS treatment): 1.8 fold
- increase in IL-10 ([1]; vs PBS treatment): 1.8 fold
- increase in IL-17 ([1]; vs PBS treatment): 3.7 fold
- reduction in IFN-γ ([1]; vs PBS treatment): 1.8 fold
- IL-18 levels ([1]; vs control group): significantly increased
- increase in CCL22 (MDC) levels ([1]; vs control group): 1.7 fold
- increase in IL-1α levels ([1]; vs control group): 1.7 fold
- increase in IL-1β levels ([1]; vs control group): 1.7 fold
- airway resistance at day 15 after conidia ([2]; treated every other day from day 0 to 15, 10 μg/injection): significantly increased
- airway resistance at day 30 after conidia ([2]; treated every other day from day 15 to 30, 10 μg/injection): significantly decreased
